What was measured:
[1] = tested on: ethidium bromide bound DNA (CT-DNA); test: Ethidium bromide-DNA fluorescence quenching (emission titration); format: binding, calf thymus; conditions: for Scatchard analysis KSA / Scatchard analysis n / LWB method KLB: DNA; for Kass (DNA), SV method II / KSV (DNA), SV method I: EB-DNA; for KSV (DNA), SV method I: 610 nm; for Kapp: KEB = 10^7 M^−1 at 50 μM EB; for Kq (DNA), SV method I: Kq=KSV/τ0, τ0 = 10^−8 S; for LWB method KLB: Lineweaver–Burk; for P (DNA), ratio of fluorescence quantum efficiency: intercept of F/F0 vs 1/[DNA]; for n (DNA), SV method II: number of binding sites; for ∆Gb° (DNA), SV method II: –RT lnKass, 298 K
Experimental: The experiment was performed in the 200 to 800 nm region. This is supporting evidence for the complexes' manner of deoxyribonucleic acid binding. When DNA (200 μM) was present or absent, we carefully monitored the intensity variations between 610 nm and 510 nm during the initial emission and excitation of EB [6, 28, 37]. Similarly, emission titrations for BSA interaction with different concentrations between 2.5 μM and 25 μM for all substances were conducted in a Tris-HCl buffer solution (pH: 7.4) between the regions of 300 nm and 400 nm.
Emission titration is a more sensitive approach to examining the binding tendency between chemical substances and biomolecules. The emission measurements are extensively supported to scrutinize the interacting modes between compounds and deoxyribonucleic acid. In the presence of deoxyribonucleic acid (240 μM) in a Tris-HCl buffer solution (pH: 7.2) at room temperature, none of the test compounds emitted fluorescence. The titrations were also executed with the EB molecule, which is also a comparatively low fluorescence emission in Tris-HCl buffer solution (pH: 7.2) in the free state. […] In the investigation, the addition of sample concentrations (0–240 μM) to the solution of DNA-EB results in a notable reduction in the emission intensity at 610 nm (Figure 5 and Table 4). As a result of intense intercalation, the complexes displace the EB in the DNA-EB adduct, causing the emission intensity to drop. The photoelectron shift from the DNA's guanine base to the excited states may be the cause of the frequency of quenching in the emission of chemicals by DNA. Therefore, EB can be utilized as a fluorescent probing agent in the competitive binding experiment.
K SV is denoted as Stern–Volmer binding constant; Kass is represented as association binding constant; Kapp is represented as apparent binding constant, Kapp=KEB[EB]/[compound]=500/[compound], KEB = 10^7 M^−1 at the concentration of 50 μM EB; Gibb's free energy change ΔGb°=–RT lnKass; Kq is represented as bimolecular quenching rate constant/Stern–Volmer dynamic quenching rate constant (Kq=KSV/τ0), average life time of the biomolecular quenching in the absence of a quencher (τ0) = 10^−8 S; Gibb's free energy change ΔGb°=–RT lnKass (where R = […], T = 298 K); KLB is represented as Lineweaver–Burk (LWB) binding constant; KSA is represented as Scatchard association binding constant; Kapp is denoted as apparent binding constant; n is the number of binding sites; P is a ratio of fluorescence quantum efficiency of DNA bound and free complex (P=ɸb/ɸf), which is obtained as intercept from plot F/F0 vs. 1/[DNA], Error limit is ± 2.5% (P < 0.025).(12) Fcorr=Fobs×e^Aex×dex+Aem×dem/2=Fobs×e^Aex+Aem/2, where Fcorr and Fobs are represented as the IFE-corrected fluorescence and observed (uncorrected) emission intensities, respectively. dex and dem are denoted as the cuvette path lengths in the excitation and emission directions, respectively. Aex and Aem are represented as the change in absorbance at the excitation and fluorescence wavelengths, respectively.(13) F0 /F=1+KSVQ=1+Kq τ0, where [Q] is represented as the sample concentration, the emission intensities F0 and F of DNA/BSA in the absence and presence of the quencher (sample), respectively.(14) F0 /F−1=F0−F/F=KSVQlogF0−F/F=logKass+n logQ, (15) KEBEB=Kappcompound, (16) 1/F0−F=1/F0 KLBQ+1/F0 , (17) γ/CF =KSCn−γ, where γ = [(F0 − F)/F0], and CF is denoted as the concentration of sample alone.
The linear regression correlation coefficient (R^2) values for all substances further confirmed that there is no found inner filter effect due to these values are greater than 0.95. Moreover, the following Stern–Volmer equations (13)–(15) were employed to determine the KSV, Kq, and n values (Table 4). The KSV findings were measured from the slope to intercept ratio of the linear regression plot of F0/F vs. [Q] by the SV method I (Figure S22). […]

Bacillus cereus = test: Agar disc diffusion, strain G; format: cell-based; design: (inhibition %): concentration or dose not given beside the values; conditions: for diameter of the clear zone inhibition: control = 6 mm
Experimental: (§1) In-vitro antimicrobial properties were evaluated for all samples by the agar disc diffusion method towards different fungal and bacterial strains. Additionally, the reported inhibition zone values were comparatively analyzed with the standard antifungal drugs ketoconazole and amphotericin B as well as the standard antibiotic medications streptomycin and amikacin.
(§2) The current research has a curious focus on the in vitro antimicrobial properties of biological systems because these studies are crucial for developing effective antibacterial and antifungal medications. […] It can also be spelled out based on the chelation theory proposed by Overtone and Tweedy. Chelation theory points out that the partial exchanging of the positive charge of the metal center with donor moieties, and overlap of the ligand orbitals will reduce the greater degree of the metal ion's polarity, which ultimately rises the delocalization of π and d electrons over the full chelated ring system. By raising the size of the metal ion due to the retarding of polarization, chelation may also enhance the complexes' lipophilic characteristics, which further stimulate the lipid membrane permeability and break down the bacteria' enzymes responsible for cell wall formation, therefore slowing down the regular cell processes. By preventing the production of cell walls/proteins/DNA, including by obstructing folate metabolism and the cytoplasmic membrane, antimicrobial drugs frequently either fully eliminate microbes or only prevent their cell growth. Additionally, the samples' mode of action may be employed in disrupting the cell's respiration process by forming an H-bond during the morpholine-fused iminic group coordinated with the active metal center of its components, inhibiting proliferation of the cell. […] The difference in the antimicrobial efficacy of some of the compounds towards various microorganisms influences on the impermeability of the cells of the germs or the diversity of ribosomes of the microbes. The % of the inhibition of all substances is estimated from (45) (Table 9).
(§3) (A, B, C, D, and E are represented as gram negative bacteria species Escherichia coli, Salmonella enteric serovar typhi, Salmonella enteric serovar typhi, Pseudomonas aeruginosa, and Shigella flexneri, respectively. F & G are denoted as gram positive bacteria species Staphylococcus aureus and Bacillus cereus. H, I, and J are represented as fungal strains Aspergillus niger, Candida albicans, and Mucor indicus. Standard drugs for bacterial strains: Amikacin & Streptomycin Standard drugs for fungal strains: Ketoconazole and Amphotericin B. [Control (DMSO) = 6 mm].(44) Inhibition %=T–C/T×100, where T and C are represented as the diameter of microbial growth of the sample plates and the control plate (6 mm), respectively. Error limits ±2.5–5.0% (P ≤ 0.05).

Pseudomonas aeruginosa = test: Agar disc diffusion, strain D; format: cell-based; design: (inhibition %): concentration or dose not given beside the values; conditions: for diameter of the clear zone inhibition: control = 6 mm
Experimental: as §1, §2, §3

[Cu+2].[O-]c1ccccc1N=Cc1ccc(N2CCOCC2)cc1.[O-]c1ccccc1N=Cc1ccc(N2CCOCC2)cc1.c1ccc(-c2ccccn2)nc1 [(1a), [Cu(L)2(bpy)]]
Scatchard analysis KSA [1]: 33151 M⁻¹ | Scatchard analysis n [1]: 1.033 | Kass (DNA), SV method II [1]: 50564 M⁻¹ | KSV (DNA), SV method I [1]: 52474 M⁻¹ | Kapp [1]: 9.894e+06 M⁻¹ | Kq (DNA), SV method I [1]: 5.2474e+12 M⁻¹ s⁻¹ | LWB method KLB [1]: 18846 M⁻¹ | P (DNA), ratio of fluorescence quantum efficiency [1]: 0.2000 | n (DNA), SV method II [1]: 1.168 | ∆Gb° (DNA), SV method II [1]: −26.835 kJM^−1 | (inhibition %) (Bacillus cereus): 54% | diameter of the clear zone inhibition (Bacillus cereus): 13 mm | (inhibition %) (Pseudomonas aeruginosa): 33% | diameter of the clear zone inhibition (Pseudomonas aeruginosa): 09 mm

Oc1ccccc1N=Cc1ccc(N2CCOCC2)cc1 [(HL), 2-(4-morpholinobenzylideneamino)phenol]
Scatchard analysis KSA [1]: 23194 M⁻¹ | Scatchard analysis n [1]: 1.096 | Kass (DNA), SV method II [1]: 9606 M⁻¹ | KSV (DNA), SV method I [1]: 11636 M⁻¹ | Kapp [1]: 5.829e+06 M⁻¹ | Kq (DNA), SV method I [1]: 1.1636e+12 M⁻¹ s⁻¹ | LWB method KLB [1]: 6985 M⁻¹ | P (DNA), ratio of fluorescence quantum efficiency [1]: 0.0900 | n (DNA), SV method II [1]: 0.973 | ∆Gb° (DNA), SV method II [1]: −22.720 kJM^−1 | (inhibition %) (Bacillus cereus): 33% | diameter of the clear zone inhibition (Bacillus cereus): 09 mm | (inhibition %) (Pseudomonas aeruginosa): 25% | diameter of the clear zone inhibition (Pseudomonas aeruginosa): 08 mm

[O-]c1ccccc1N=Cc1ccc(N2CCOCC2)cc1.[O-]c1ccccc1N=Cc1ccc(N2CCOCC2)cc1.[Zn+2].c1ccc(-c2ccccn2)nc1 [(2a), [Zn(L)2(bpy)]]
Scatchard analysis KSA [1]: 30190 M⁻¹ | Scatchard analysis n [1]: 0.971 | Kass (DNA), SV method II [1]: 17368 M⁻¹ | KSV (DNA), SV method I [1]: 32694 M⁻¹ | Kapp [1]: 6.569e+06 M⁻¹ | Kq (DNA), SV method I [1]: 3.2694e+12 M⁻¹ s⁻¹ | LWB method KLB [1]: 15630 M⁻¹ | P (DNA), ratio of fluorescence quantum efficiency [1]: 0.1832 | n (DNA), SV method II [1]: 1.055 | ∆Gb° (DNA), SV method II [1]: −24.187 kJM^−1 | (inhibition %) (Bacillus cereus): 57% | diameter of the clear zone inhibition (Bacillus cereus): 14 mm | (inhibition %) (Pseudomonas aeruginosa): 33% | diameter of the clear zone inhibition (Pseudomonas aeruginosa): 09 mm

Source: paper PMC9763021, “Comprehensive Assessment of Biomolecular Interactions of Morpholine-Based Mixed Ligand Cu(II) and Zn(II) Complexes of 2,2′-Bipyridine as Potential Anticancer and SARS-CoV-2 Agents: A Synergistic Experimental and Structure-Based Virtual Screening” (Bioinorganic Chemistry and Applications, 2022)
